Measurements: ChEMBL document CHEMBL4354792, “Emerging modes-of-action in drug discovery” (Medchemcomm, 2019)

Columns and labels:
Ribosome = assay: Inhibition of 80s ribosome in CHOK1 cells assessed as reduction in PL-tagged PCSK9 expression incubated for over night by EFC kit method; type: cell-based; settings: Cricetulus griseus, CHO-K1
[1] = Binding affinity to MMTV-PyMT mouse MALAT1 long non-coding RNA by FRET assay

Row | Compound | IC50 (Ribosome) [µM] | IC50 [1] [µM]
1 | COc1ccc(CCC(=O)N(c2nccc3ccccc23)[C@@H]2CCCNC2)cc1 | 4.8 | 
2 | N=C(NC1CCN(Cc2ccccc2)CC1)c1ccc(-c2ccc(-c3ccc(C(=N)NC4CCN(Cc5ccccc5)CC4)cc3)o2)cc1 |  | 1.3 to 2.5
